Assay results from patent publication US20210317134A1, “UBIQUITIN-SPECIFIC-PROCESSING PROTEASE 7 (USP7) MODULATORS AND USES THEREOF” (RAPT THERAPEUTICS, INC., priority 2019, published 2021).

Molecular target: USP7 (Homo sapiens, UniProt Q93009)
Assay: USP7 inhibitory potency (Table 1)
Type: biochemical

USP7, sequence (Q93009 whole entry): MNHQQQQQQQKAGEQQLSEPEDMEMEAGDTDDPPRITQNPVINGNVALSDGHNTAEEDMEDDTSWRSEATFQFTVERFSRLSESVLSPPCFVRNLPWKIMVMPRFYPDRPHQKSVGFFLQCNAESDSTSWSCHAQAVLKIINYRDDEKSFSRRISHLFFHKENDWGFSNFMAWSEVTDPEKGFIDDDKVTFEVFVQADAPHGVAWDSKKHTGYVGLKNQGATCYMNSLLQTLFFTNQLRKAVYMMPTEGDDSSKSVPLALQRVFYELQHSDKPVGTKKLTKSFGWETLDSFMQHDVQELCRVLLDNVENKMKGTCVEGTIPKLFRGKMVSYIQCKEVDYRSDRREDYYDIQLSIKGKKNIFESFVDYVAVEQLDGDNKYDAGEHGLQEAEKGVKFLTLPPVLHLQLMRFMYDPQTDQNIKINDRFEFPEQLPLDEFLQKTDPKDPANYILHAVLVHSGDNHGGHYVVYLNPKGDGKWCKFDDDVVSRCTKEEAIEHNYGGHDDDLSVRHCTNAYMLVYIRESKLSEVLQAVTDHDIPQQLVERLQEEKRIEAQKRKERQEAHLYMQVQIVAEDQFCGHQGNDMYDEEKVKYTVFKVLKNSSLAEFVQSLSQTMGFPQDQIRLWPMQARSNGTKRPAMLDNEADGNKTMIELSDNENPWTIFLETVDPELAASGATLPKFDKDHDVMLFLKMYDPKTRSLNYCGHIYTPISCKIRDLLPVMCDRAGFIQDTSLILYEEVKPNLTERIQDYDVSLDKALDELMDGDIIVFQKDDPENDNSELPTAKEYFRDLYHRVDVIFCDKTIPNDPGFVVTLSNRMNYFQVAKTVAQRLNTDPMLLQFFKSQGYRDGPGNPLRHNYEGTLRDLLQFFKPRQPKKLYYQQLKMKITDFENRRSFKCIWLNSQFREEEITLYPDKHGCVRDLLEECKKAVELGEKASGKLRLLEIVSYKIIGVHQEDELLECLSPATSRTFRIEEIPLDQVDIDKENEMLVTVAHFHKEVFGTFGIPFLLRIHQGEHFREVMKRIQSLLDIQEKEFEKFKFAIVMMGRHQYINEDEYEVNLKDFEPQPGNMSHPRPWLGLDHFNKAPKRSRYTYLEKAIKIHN

Row | Compound | IC50 [nM]
1 | CCC(O)c1cc2nccc(-c3cc(Cl)cc4c3OC(c3onc5c3CNCC5)C4)n2n1 (centres unmarked) [1-(7-(5-chloro-2-(4,5,6,7-tetrahydroisoxazolo[4,3-c]pyridin-3-yl)-2,3-dihydrobenzofuran-7-yl)pyrazolo[1,5-a]pyrimidin-2-yl)propan-1-ol] | 1000 to 10000
2 | Nc1cc(-c2cc(Cl)cc3c2OC(C(=O)N2CCNCC2)C3)ccn1 (centres unmarked) [(7-(2-Aminopyridin-4-yl)-5-chloro-2,3-dihydrobenzofuran-2-yl)(piperazin-1-yl)methanone] | 1000 to 10000
3 | Nc1nccc(-c2cc(Cl)cc3c2OC(C(=O)N2CCNCC2)C3)c1Cl (centres unmarked) [(7-(2-amino-3-chloropyridin-4-yl)-5-chloro-2,3-dihydrobenzofuran-2-yl)(piperazin-1-yl)methanone] | 1000 to 10000
4 | COc1cccc2c(-c3cc(Cl)cc4c3OC(C(=O)N3CCNCC3)C4)ccnc12 (centres unmarked) [(5-chloro-7-(8-methoxyquinolin-4-yl)-2,3-dihydrobenzofuran-2-yl)(piperazin-1-yl)methanone] | 10000 to 30000
5 | C[C@H]1C[C@H](NC(=O)C2Cc3cc(Cl)cc(-c4ccnc5[nH]ccc45)c3O2)CCN1 (stereo partly drawn) [5-chloro-N-((2S,4R)-2-methylpiperidin-4-yl)-7-(1H-pyrrolo[2,3-b]pyridin-4-yl)-2,3-dihydrobenzofuran-2-carboxamide] | 1000 to 10000
6 | O=C(C1Cc2cc(Cl)cc(-c3ccnc4[nH]ccc34)c2O1)N1CCN([C@H]2CC[C@@H](c3ccccc3)CC2)CC1 (some centres unmarked) [(5-chloro-7-(1H-pyrrolo[2,3-b]pyridin-4-yl)-2,3-dihydrobenzofuran-2-yl)(4-((1s,4s)-4-phenylcyclohexyl)piperazin-1-yl)methanone] | 1000 to 10000

Now from value to molecule:

Row | IC50 [nM] | Compound
7 | 1000 to 10000 | O=C([C@H]1Cc2cc(Cl)cc(-c3ccnc4ccsc34)c2O1)N1CCN2CCCC2C1 (stereo partly drawn) [((R)-5-chloro-7-(thieno[3,2-b]pyridin-7-yl)-2,3-dihydrobenzofuran-2-yl)(hexahydropyrrolo[1,2-a]pyrazin-2(1H)-yl)methanone]
8 | < 1000 | O=C([C@H]1Cc2cc(Cl)cc(-c3ccnc4cc(CO)oc34)c2O1)N1CCNCC1 [(R)-(5-chloro-7-(2-(hydroxymethyl)furo[3,2-b]pyridin-7-yl)-2,3-dihydrobenzofuran-2-yl)(piperazin-1-yl)methanone]
9 | 1000 to 10000 | Clc1cc2c(c(-c3ccnc4[nH]ccc34)c1)OC(c1n[nH]c3c1CNCC3)C2 (centres unmarked) [3-(5-chloro-7-(1H-pyrrolo[2,3-b]pyridin-4-yl)-2,3-dihydrobenzofuran-2-yl)-4,5,6,7-tetrahydro-1H-pyrazolo[4,3-c]pyridine]
10 | < 1000 | N#Cc1ccc2c(-c3cc(Cl)cc4c3O[C@@H](c3onc5c3CNCC5)C4)ccnc2c1 [(R)-4-(5-chloro-2-(4,5,6,7-tetrahydroisoxazolo[4,3-c]pyridin-3-yl)-2,3-dihydrobenzofuran-7-yl)quinoline-7-carbonitrile]
11 | < 1000 | CC(=O)NCc1cc2nccc(-c3cc(Cl)cc4c3O[C@@H](c3onc5c3CNCC5)C4)c2s1 [(R)-N-((7-(5-chloro-2-(4,5,6,7-tetrahydroisoxazolo[4,3-c]pyridin-3-yl)-2,3-dihydrobenzofuran-7-yl)thieno[3,2-b]pyridin-2-yl)methyl)acetamide]
12 | < 1000 | CN(C)C1CCN(C(=O)[C@H]2Cc3cc(Cl)cc(-c4ccnc5cc(CO)sc45)c3O2)CC1 [(R)-(5-chloro-7-(2-(hydroxymethyl)thieno[3,2-b]pyridin-7-yl)-2,3-dihydrobenzofuran-2-yl)(4-(dimethylamino)piperidin-1-yl)methanone]
13 | < 1000 | CC(=O)NC(C)c1cc2nccc(-c3cc(Cl)cc4c3O[C@@H](c3c5c(nn3C)CCNC5)C4)c2s1 (stereo partly drawn) [N-(1-(7-((R)-5-chloro-2-(2-methyl-4,5,6,7-tetrahydro-2H-pyrazolo[4,3-c]pyridin-3-yl)-2,3-dihydrobenzofuran-7-yl)thieno[3,2-b]pyridin-2-yl)ethyl)acetamide]
14 | < 1000 | O=C([C@H]1Cc2cc(Cl)cc(-c3ccnc4cc(CN5C(=O)CCC5=O)ccc34)c2O1)N1CCNCC1 [(R)-1-((4-(5-chloro-2-(piperazine-1-carbonyl)-2,3-dihydrobenzofuran-7-yl)quinolin-7-yl)methyl)pyrrolidine-2,5-dione]
